Legend:
[1] = system: NCCIT; assay: SANGER: Inhibition of human NCCIT cell growth in a cell viability assay.; type: functional, cell-based
[2] = system: BC-3; assay: cells; type: functional, cell-based; conditions: Homo sapiens;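 note: cell viability assay measuring growth inhibition of human BC-3 cells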
Description: SANGER: Inhibition of human BC-3 cell growth in a cell viability assay.

[3] = system: SCC-3; assay: cells; type: functional, cell-based; conditions: Homo sapiens;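 note: cell viability assay measuring inhibition of SCC-3 cell growth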
Description: SANGER: Inhibition of human SCC-3 cell growth in a cell viability assay.

[4] = system: SIMA; assay: cells; type: functional, cell-based, Homo sapiens; conditions: Homo sapiens, SIMA;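 note: growth inhibition of SIMA cells, measured with a cell viability readout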
Description: SANGER: Inhibition of human SIMA cell growth in a cell viability assay.

[5] = system: Kasumi 1; assay: cells; type: functional, cell-based; conditions: Homo sapiens;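 note: growth inhibition of human Kasumi-1 cells, read out by a cell viability assay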
Description: SANGER: Inhibition of human KASUMI-1 cell growth in a cell viability assay.

[6] = system: COR-L279; assay: SANGER: Inhibition of human COR-L279 cell growth in a cell viability assay.; type: functional, cell-based
[7] = system: MRK-nu-1; assay: cells; type: functional, cell-based; conditions: Homo sapiens;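 note: cell viability assay measuring growth suppression of human MRK-nu-1 cells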
Description: SANGER: Inhibition of human MRK-nu-1 cell growth in a cell viability assay.

[8] = system: NCI-H716; assay: cells; type: functional, cell-based; conditions: Homo sapiens;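 note: growth inhibition of human NCI-H716 cells, measured by a cell viability assay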
Description: SANGER: Inhibition of human NCI-H716 cell growth in a cell viability assay.

[9] = system: CAL-148; assay: cells; type: functional, cell-based; conditions: Homo sapiens
Description: SANGER: Inhibition of human CAL-148 cell growth in a cell viability assay.

[10] = system: RPMI-8866; assay: cells; type: functional, cell-based; conditions: Homo sapiens
Description: SANGER: Inhibition of human RPMI-8866 cell growth in a cell viability assay.

[11] = system: ARH-77; assay: cells; type: functional, cell-based; conditions: Homo sapiens;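 note: growth inhibition of ARH-77 cells, read out by a cell viability assay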
Description: SANGER: Inhibition of human ARH-77 cell growth in a cell viability assay.

[12] = system: NCI-H64; assay: cells; type: functional, cell-based; conditions: Homo sapiens;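 note: growth inhibition of NCI-H64 cells, read out with a cell viability assay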
Description: SANGER: Inhibition of human NCI-H64 cell growth in a cell viability assay.

[13] = system: SK-MEL-1; assay: cells; type: functional, cell-based; conditions: Homo sapiens;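 note: growth inhibition of human SK-MEL-1 cells, read out by a cell viability assay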
Description: SANGER: Inhibition of human SK-MEL-1 cell growth in a cell viability assay.

[14] = system: MC-CAR; assay: cells; type: functional, cell-based; conditions: Homo sapiens;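 note: growth inhibition of the human MC-CAR cell line, read out by a cell viability assay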
Description: SANGER: Inhibition of human MC-CAR cell growth in a cell viability assay.

[15] = system: TK-10; assay: cells; type: functional, cell-based, Homo sapiens; conditions: Homo sapiens, TK-10;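 note: growth inhibition of TK-10 cells, read out in a cell viability assay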
Description: SANGER: Inhibition of human TK10 cell growth in a cell viability assay.

[16] = system: SIG-M5; assay: cells; type: functional, cell-based; conditions: Homo sapiens;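 note: cell viability assay read-out, measuring how strongly growth of cultured human SIG-M5 cells is inhibited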
Description: SANGER: Inhibition of human SIG-M5 cell growth in a cell viability assay.

[17] = system: NCI-H322M; assay: cells; type: functional, cell-based; conditions: Homo sapiens;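 note: cell viability assay measuring inhibition of growth of human NCI-H322M cells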
Description: SANGER: Inhibition of human NCI-H322M cell growth in a cell viability assay.

[18] = system: RL95-2; assay: cells; type: functional, cell-based; conditions: Homo sapiens;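 note: RL95-2 growth inhibition determined through a cell viability readout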
Description: SANGER: Inhibition of human RL95-2 cell growth in a cell viability assay.

[19] = system: P31-FUJ; assay: cells; type: functional, cell-based; conditions: Homo sapiens;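 note: growth inhibition of P31-FUJ cells, read out with a viability assay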
Description: SANGER: Inhibition of human P31-FUJ cell growth in a cell viability assay.

[20] = system: IM-9; assay: SANGER: Inhibition of human IM-9 cell growth in a cell viability assay.; type: functional, cell-based
[21] = system: EW-16; assay: cells; type: functional, cell-based, Homo sapiens; conditions: Homo sapiens, EW-16;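 note: growth inhibition of human EW-16 cells, read out as cell viability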
Description: SANGER: Inhibition of human EW-16 cell growth in a cell viability assay.

[22] = system: IST-SL2; assay: cells; type: functional, cell-based; conditions: Homo sapiens;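 note: growth inhibition of human IST-SL2 cells, read out by a cell viability assay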
Description: SANGER: Inhibition of human IST-SL2 cell growth in a cell viability assay.

[23] = system: KM-H2; assay: cells; type: functional, cell-based; conditions: Homo sapiens;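 note: growth inhibition of KM-H2 cells, read out by a cell viability assay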
Description: SANGER: Inhibition of human KM-H2 cell growth in a cell viability assay.

[24] = system: NCI-H1694; assay: cells; type: functional, cell-based; conditions: Homo sapiens;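 note: cell viability assay measuring inhibition of growth in human NCI-H1694 cells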
Description: SANGER: Inhibition of human NCI-H1694 cell growth in a cell viability assay.

[25] = system: DMS-153; assay: cells; type: functional, cell-based; conditions: Homo sapiens
Description: SANGER: Inhibition of human DMS-153 cell growth in a cell viability assay.

[26] = system: NCI-H524; assay: cells; type: functional, cell-based; conditions: Homo sapiens;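 note: growth inhibition of human NCI-H524 cells, read out through a cell viability assay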
Description: SANGER: Inhibition of human NCI-H524 cell growth in a cell viability assay.

[27] = system: NCI-H1963; assay: cells; type: functional, cell-based; conditions: Homo sapiens;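 note: cell growth inhibition of the human line, determined with a cell viability assay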
Description: SANGER: Inhibition of human NCI-H1963 cell growth in a cell viability assay.

[28] = system: NALM-6; assay: cells; type: functional, cell-based; conditions: Homo sapiens;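 note: growth inhibition of NALM-6 cells, read out with a cell viability assay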
Description: SANGER: Inhibition of human NALM-6 cell growth in a cell viability assay.

[29] = system: NCI-H2081; assay: cells; type: functional, cell-based; conditions: Homo sapiens;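 note: growth inhibition of human NCI-H2081 cells, read out with a cell viability assay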
Description: SANGER: Inhibition of human NCI-H2081 cell growth in a cell viability assay.

[30] = system: NCI-H748; assay: cells; type: functional, cell-based; conditions: Homo sapiens;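 note: growth inhibition of NCI-H748 cells, measured by a cell viability assay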
Description: SANGER: Inhibition of human NCI-H748 cell growth in a cell viability assay.

[31] = system: HCE-T; assay: cells; type: functional, cell-based, Homo sapiens; conditions: Homo sapiens, HCE-T;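 note: cell viability assay read-out, reporting inhibition of HCE-T cell growth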
Description: SANGER: Inhibition of human HCE-T cell growth in a cell viability assay.

[32] = system: CHP-126; assay: cells; type: functional, cell-based; conditions: Homo sapiens
Description: SANGER: Inhibition of human CHP-126 cell growth in a cell viability assay.

[33] = system: SNU-16; assay: cells; type: functional, cell-based; conditions: Homo sapiens;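 note: growth inhibition of human SNU-16 cells, determined with a cell viability readout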
Description: SANGER: Inhibition of human NCI-SNU-16 cell growth in a cell viability assay.

[34] = system: KARPAS-299; assay: cells; type: functional, cell-based; conditions: Homo sapiens
Description: SANGER: Inhibition of human KARPAS-299 cell growth in a cell viability assay.

[35] = system: ST486; assay: SANGER: Inhibition of human ST486 cell growth in a cell viability assay.; type: functional, cell-based
[36] = system: COR-L23; assay: cells; type: functional, cell-based, Homo sapiens; conditions: Homo sapiens, COR-L23;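 note: cell viability assay measuring how strongly compounds suppress growth of COR-L23 cells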
Description: SANGER: Inhibition of human COR-L23 cell growth in a cell viability assay.

[37] = system: SKG-IIIa; assay: cells; type: functional, cell-based, Homo sapiens; conditions: Homo sapiens, SKG-IIIa;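 note: cell growth inhibition, read out with a cell viability assay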
Description: SANGER: Inhibition of human SKG-IIIa cell growth in a cell viability assay.

[38] = system: ChaGo-K-1; assay: cells; type: functional, cell-based; conditions: Homo sapiens;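 note: growth inhibition of ChaGo-K-1 cells, read out with a cell viability assay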
Description: SANGER: Inhibition of human ChaGo-K-1 cell growth in a cell viability assay.

[39] = system: EHEB; assay: cells; type: functional, cell-based; conditions: Homo sapiens;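 note: growth inhibition of human EHEB cells, read out with a cell viability assay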
Description: SANGER: Inhibition of human EHEB cell growth in a cell viability assay.

[40] = system: ESS-1; assay: cells; type: functional, cell-based, Homo sapiens; conditions: Homo sapiens, ESS-1;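 note: growth inhibition of human ESS-1 cells, read out by a cell viability assay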
Description: SANGER: Inhibition of human ESS-1 cell growth in a cell viability assay.

[41] = system: NCI-H460; assay: cells; type: functional, cell-based, Homo sapiens; conditions: Homo sapiens, NCI-H460;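 note: cell viability assay scoring growth inhibition of human NCI-H460 cells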
Description: SANGER: Inhibition of human NCI-H460 cell growth in a cell viability assay.

[42] = system: 8305C; assay: cells; type: functional, cell-based, Homo sapiens; conditions: Homo sapiens, 8305C
Description: SANGER: Inhibition of human 8305C cell growth in a cell viability assay.

[43] = system: CaR-1; assay: cells; type: functional, cell-based, Homo sapiens; conditions: Homo sapiens, CaR-1;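 note: growth inhibition of human CaR-1 cancer cells, read out with a cell viability assay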
Description: SANGER: Inhibition of human CaR-1 cell growth in a cell viability assay.

[44] = system: HCT-15; assay: cells; type: functional, cell-based, Homo sapiens; conditions: Homo sapiens, HCT-15;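 note: cell viability readout, IC50 reflecting suppression of HCT-15 cell growth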
Description: SANGER: Inhibition of human HCT-15 cell growth in a cell viability assay.

[45] = system: HT55; assay: cells; type: functional, cell-based, Homo sapiens; conditions: Homo sapiens, HT55;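 note: cell viability readout measuring growth inhibition of human HT55 cells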
Description: SANGER: Inhibition of human HT55 cell growth in a cell viability assay.

[46] = system: HPAF-II; assay: cells; type: functional, cell-based, Homo sapiens; conditions: Homo sapiens, HPAF-II;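 note: growth inhibition of HPAF-II cells, read out with a cell viability assay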
Description: SANGER: Inhibition of human HPAF-II cell growth in a cell viability assay.

[47] = system: HLE; assay: cells; type: functional, cell-based, Homo sapiens; conditions: Homo sapiens, HLE;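 note: growth inhibition of human HLE cells, read out by a cell viability assay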
Description: SANGER: Inhibition of human HLE cell growth in a cell viability assay.

[48] = system: OVCAR-8; assay: cells; type: functional, cell-based, Homo sapiens; conditions: Homo sapiens, OVCAR-8;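 note: growth inhibition of human OVCAR-8 cells, read out by a cell viability assay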
Description: SANGER: Inhibition of human OVCAR-8 cell growth in a cell viability assay.

[49] = system: MEL-HO; assay: cells; type: functional, cell-based, Homo sapiens; conditions: Homo sapiens, MEL-HO
Description: SANGER: Inhibition of human MEL-HO cell growth in a cell viability assay.

[50] = system: DoTc2-4510; assay: cells; type: functional, cell-based, Homo sapiens; conditions: Homo sapiens, DoTc2-4510
[51] = system: MHH-ES-1; assay: cells; type: functional, cell-based, Homo sapiens; conditions: Homo sapiens, MHH-ES-1
Description: SANGER: Inhibition of human MHH-ES-1 cell growth in a cell viability assay.

C=C1C(=O)O[C@@H]2C3O[C@]3(C)CC/C=C(\C)CC[C@@H]12 (some centres undefined)
IC50 [1]: > 5 µM
IC50 [2]: > 5 µM
IC50 [3]: 2.8 µM
IC50 [4]: > 5 µM
IC50 [5]: > 5 µM
IC50 [6]: > 5 µM
IC50 [7]: 2.01 µM
IC50 [8]: > 5 µM
IC50 [9]: > 5 µM
IC50 [10]: > 5 µM
IC50 [11]: > 5 µM
IC50 [12]: > 5 µM
IC50 [13]: > 5 µM
IC50 [14]: > 5 µM
IC50 [15]: > 5 µM
IC50 [16]: > 5 µM
IC50 [17]: > 5 µM
IC50 [18]: > 5 µM
IC50 [19]: > 5 µM
IC50 [20]: > 5 µM
IC50 [21]: > 5 µM
IC50 [22]: > 5 µM
IC50 [23]: > 5 µM
IC50 [24]: > 5 µM
IC50 [25]: > 5 µM
IC50 [26]: > 5 µM
IC50 [27]: > 5 µM
IC50 [28]: > 5 µM
IC50 [29]: > 5 µM
IC50 [30]: > 5 µM
IC50 [31]: > 5 µM
IC50 [32]: > 5 µM
IC50 [33]: > 5 µM
IC50 [34]: > 5 µM
IC50 [35]: > 5 µM

CC1=C2C[C@H]3[C@@H](CC=C4C[C@@H](O)CC[C@@]43C)[C@@H]2CC[C@]12O[C@@H]1C[C@H](C)CN[C@H]1[C@H]2C [CYCLOPAMINE]
IC50 [1]: > 16 µM
IC50 [2]: > 16 µM
IC50 [3]: > 16 µM
IC50 [4]: > 16 µM
IC50 [5]: > 16 µM
IC50 [6]: > 16 µM
IC50 [7]: > 16 µM
IC50 [8]: > 16 µM
IC50 [9]: > 16 µM
IC50 [10]: > 16 µM
IC50 [11]: > 16 µM
IC50 [12]: > 16 µM
IC50 [13]: > 16 µM
IC50 [14]: > 16 µM
IC50 [15]: > 16 µM
IC50 [16]: > 16 µM
IC50 [17]: > 16 µM
IC50 [18]: > 16 µM
IC50 [19]: > 16 µM
IC50 [20]: > 16 µM
IC50 [21]: > 16 µM
IC50 [22]: > 16 µM
IC50 [23]: > 16 µM
IC50 [24]: > 16 µM
IC50 [25]: > 16 µM
IC50 [26]: > 16 µM
IC50 [27]: > 16 µM
IC50 [28]: > 16 µM
IC50 [29]: > 16 µM
IC50 [30]: > 16 µM
IC50 [31]: > 16 µM
IC50 [32]: > 16 µM
IC50 [33]: > 16 µM
IC50 [34]: > 16 µM
IC50 [35]: > 16 µM

C[C@]1(O)C[C@@H](c2nc(-c3ccc4ccc(-c5ccccc5)nc4c3)c3c(N)nccn32)C1 [LINSITINIB]
IC50 [1]: > 2.56 µM
IC50 [2]: > 2.56 µM
IC50 [3]: > 2.56 µM
IC50 [4]: 1.07 µM
IC50 [36]: > 2.56 µM
IC50 [6]: > 2.56 µM
IC50 [37]: > 2.56 µM
IC50 [38]: > 2.56 µM
IC50 [7]: > 2.56 µM
IC50 [39]: > 2.56 µM
IC50 [8]: > 2.56 µM
IC50 [9]: > 2.56 µM
IC50 [10]: > 2.56 µM
IC50 [40]: > 2.56 µM
IC50 [11]: > 2.56 µM
IC50 [12]: > 2.56 µM
IC50 [13]: > 2.56 µM
IC50 [14]: > 2.56 µM
IC50 [15]: > 2.56 µM
IC50 [16]: 0.536 µM
IC50 [17]: > 2.56 µM
IC50 [19]: > 2.56 µM
IC50 [41]: > 2.56 µM
IC50 [42]: > 2.56 µM
IC50 [43]: > 2.56 µM
IC50 [20]: > 2.56 µM
IC50 [21]: 0.188 µM
IC50 [44]: > 2.56 µM
IC50 [22]: > 2.56 µM
IC50 [23]: > 2.56 µM
IC50 [24]: > 2.56 µM
IC50 [25]: > 2.56 µM
IC50 [45]: > 2.56 µM
IC50 [46]: > 2.56 µM
IC50 [26]: > 2.56 µM
IC50 [27]: > 2.56 µM
IC50 [47]: > 2.56 µM
IC50 [48]: > 2.56 µM
IC50 [28]: > 2.56 µM
IC50 [29]: > 2.56 µM
IC50 [30]: > 2.56 µM
IC50 [31]: > 2.56 µM
IC50 [32]: > 2.56 µM
IC50 [49]: > 2.56 µM
IC50 [33]: > 2.56 µM
IC50 [50]: > 2.56 µM
IC50 [34]: > 2.56 µM
IC50 [35]: > 2.56 µM
IC50 [51]: > 2.56 µM

Reference: ChEMBL document CHEMBL1201861, “Genomics of Drug Sensitity in Cancer screening data, Wellcome Trust Sanger Institute”
